Reference: patent US20250376461A1, “INDAZOLE DERIVATIVES FOR TREATING TRPM3-MEDIATED DISORDERS” (Katholieke Universiteit Leuven, priority 2022, published 2025)

target: T1, mouse TRPM3α2 (mTRPM3) ion channel (Mus musculus, UniProt J9SQF3); assay: TRPM3 ion channel driven Ca2+ uptake, Fluo-4 AM assay, mTRPM3alpha2 overexpressing flip-in HEK293 cells stimulated with pregnenolone sulfate (50 μM); assay type: cell-based; conditions: mTRPM3 overexpressing HEK293 cells stimulated with pregnenolone sulfate (50 μM), activity ranges A, B, C
T1 construct: expressed in transfected cells; host or cells: flip-in HEK293
T1 sequence (J9SQF3 1-1709 isoform J9SQF3-12): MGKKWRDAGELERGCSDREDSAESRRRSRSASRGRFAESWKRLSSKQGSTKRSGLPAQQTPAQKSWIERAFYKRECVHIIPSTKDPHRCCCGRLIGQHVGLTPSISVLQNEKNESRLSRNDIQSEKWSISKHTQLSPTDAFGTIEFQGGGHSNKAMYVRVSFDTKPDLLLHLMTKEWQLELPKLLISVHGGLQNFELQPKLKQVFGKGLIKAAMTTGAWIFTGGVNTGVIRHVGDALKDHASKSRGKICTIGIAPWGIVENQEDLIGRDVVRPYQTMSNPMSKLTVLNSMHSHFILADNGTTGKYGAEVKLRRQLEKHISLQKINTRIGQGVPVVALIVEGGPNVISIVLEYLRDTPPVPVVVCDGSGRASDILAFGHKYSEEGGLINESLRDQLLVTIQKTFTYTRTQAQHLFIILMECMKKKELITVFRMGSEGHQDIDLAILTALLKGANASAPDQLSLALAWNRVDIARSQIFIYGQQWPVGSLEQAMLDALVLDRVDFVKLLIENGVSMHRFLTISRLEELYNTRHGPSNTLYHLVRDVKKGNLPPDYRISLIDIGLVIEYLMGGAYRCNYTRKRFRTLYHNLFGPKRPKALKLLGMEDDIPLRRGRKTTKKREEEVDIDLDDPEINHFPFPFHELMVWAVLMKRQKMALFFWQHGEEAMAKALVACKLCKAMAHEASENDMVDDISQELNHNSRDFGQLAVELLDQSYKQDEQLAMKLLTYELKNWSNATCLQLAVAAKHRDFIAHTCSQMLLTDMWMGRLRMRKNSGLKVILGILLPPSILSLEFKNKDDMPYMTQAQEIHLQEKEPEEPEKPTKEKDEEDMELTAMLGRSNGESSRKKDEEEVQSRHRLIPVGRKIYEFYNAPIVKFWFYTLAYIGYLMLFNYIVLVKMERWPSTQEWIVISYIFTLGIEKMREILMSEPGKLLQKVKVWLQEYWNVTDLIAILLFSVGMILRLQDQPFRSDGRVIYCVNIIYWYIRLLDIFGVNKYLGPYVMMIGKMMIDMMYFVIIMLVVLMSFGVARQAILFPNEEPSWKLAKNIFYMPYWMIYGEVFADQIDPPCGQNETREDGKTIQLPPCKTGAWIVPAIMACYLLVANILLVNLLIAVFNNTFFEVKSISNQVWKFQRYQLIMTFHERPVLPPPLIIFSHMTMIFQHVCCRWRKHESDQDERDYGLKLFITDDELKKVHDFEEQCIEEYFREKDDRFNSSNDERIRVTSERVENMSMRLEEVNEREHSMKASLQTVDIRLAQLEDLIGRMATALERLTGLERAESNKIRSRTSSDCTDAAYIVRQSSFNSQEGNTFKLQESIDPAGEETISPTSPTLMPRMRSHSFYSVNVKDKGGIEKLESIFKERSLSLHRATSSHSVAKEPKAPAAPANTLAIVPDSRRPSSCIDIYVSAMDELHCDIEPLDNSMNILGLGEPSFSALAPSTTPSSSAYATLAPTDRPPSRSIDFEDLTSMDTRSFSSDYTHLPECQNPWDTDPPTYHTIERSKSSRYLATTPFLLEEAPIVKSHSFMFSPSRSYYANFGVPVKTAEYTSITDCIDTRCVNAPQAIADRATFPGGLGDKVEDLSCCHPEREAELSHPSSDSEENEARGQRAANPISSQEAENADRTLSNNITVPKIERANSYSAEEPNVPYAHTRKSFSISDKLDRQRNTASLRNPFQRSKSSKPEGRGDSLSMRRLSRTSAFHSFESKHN
Procedure: Monitoring the TRPM3 Ion Channel Driven Ca2+ Uptake.
In order to monitor the inhibition of the mouse TRPM3α2 (mTRPM3) ion channel by the compounds of the invention, a cellular system making use of an mTRPM3alpha2 or hTRPM3 overexpressing cell line (flip-in HEK293) was used. The TRPM3 channel was stimulated/opened with Pregnenolone sulfate (PS) (50 μM) which results in Ca^2+ influx.
For mTRPM3, the intracellular Ca^2+ was measured with a Calcium responsive dye, Fluor-4 AM ester (Invitrogen). Cells were cultured until a confluence of 80-90%, washed with Versene (Invitrogen) and detached from the surface by a short incubation with 0.05% Trypsin (Invitrogen). The trypsination process was stopped by the addition of complete cell culture medium (DMEM, glutamax, 10% FCS, NEAA, Pen-Strep). Cells were collected and resuspended in Krebs buffer without Calcium at RT.
Prior the cell seeding (±2000 cells/well into a black, 384 well plate (Greiner)) the diluted compound was added in the assay plate, together with the PS dissolved in Krebs buffer containing Calcium. […] Directly after cell addition the plates were read on an Envision fluorescence reader (Perkin Elmer) by an Excitation of 485 nm and emission at 535 nm.
Channel inhibition was calculated compared to a non-PS stimulated control versus a condition stimulated with PS (50 μM) with vehicle. The ability of the compounds of the invention to inhibit this activity was determined as: Percentage inhibition=[1−((RFU determined for sample with test compound present−RFU determined for sample with positive control inhibitor) divided by (RFU determined in the presence of vehicle−RFU determined for sample with positive control inhibitor))]*100.
The activities of the Example compounds cpd 001-262 tested are depicted in the table below. All tested compounds show an activity in the Fluo-4 AM assay. The activity ranges A, B and C refer to IC50 values in the Fluo-4 AM assay as follows: “A”: IC50<1 μM; “B”: 1 μM≤IC50≤20 μM and “C”: IC50>20 μM.

**Q.** For `Cc1ccc(COc2ccc3nn(C)c(C(=O)NC4(CO)CCNC4=O)c3c2)cn1` (single isomer, unassigned) [Cpd 169 - En1], which IC50 is on record?
**A.** > 20 µM

**Q.** With `Cc1ccc(COc2ccc3nn(C)c(C(=O)NC4(CO)CCNC4=O)c3c2)cn1` (single isomer, unassigned) [Cpd 169 - En2] as the compound, how does the IC50 read?
**A.** < 1 µM

**Q.** Which IC50 does the source give for `Cc1ncsc1COc1ccc2nn(C)c(C(=O)NC3(C(N)=O)CCOC3)c2c1` (single isomer, unassigned) [Cpd 170 -En1] here?
**A.** 1 to 20 µM

**Q.** Which IC50 does the source give for `Cc1ncsc1COc1ccc2nn(C)c(C(=O)NC3(C(N)=O)CCOC3)c2c1` (single isomer, unassigned) [Cpd 170 -En2] here?
**A.** 1 to 20 µM

**Q.** `Cn1nc2ccc(OCc3ccccc3F)cc2c1C(=O)NC1(CO)CCNC1=O` (single isomer, unassigned) [Cpd 171 -En1] was tested. Which IC50 did it give?
**A.** < 1 µM

**Q.** Which IC50 does the source give for `Cn1nc2ccc(OCc3ccccc3F)cc2c1C(=O)NC1(CO)CCNC1=O` (single isomer, unassigned) [Cpd 171 -En2] here?
**A.** 1 to 20 µM

**Q.** `COc1ccc2nn(C)c(C(=O)NC(C)(CO)C(N)=O)c2c1` (single isomer, unassigned) [Cpd 172 - En1] was tested. Which IC50 did it give?
**A.** > 20 µM

**Q.** For `COc1ccc2nn(C)c(C(=O)NC(C)(CO)C(N)=O)c2c1` (single isomer, unassigned) [Cpd 172 - En2], which IC50 is on record?
**A.** 1 to 20 µM

**Q.** With `Cn1nc2ccc(OCC3CCC3)cc2c1C(=O)NC(C)(CO)C(N)=O` (single isomer, unassigned) [Cpd 173 - En1] as the compound, how does the IC50 read?
**A.** < 1 µM

**Q.** With `Cn1nc2ccc(OCC3CCC3)cc2c1C(=O)NC(C)(CO)C(N)=O` (single isomer, unassigned) [Cpd 173 - En2] as the compound, how does the IC50 read?
**A.** 1 to 20 µM

**Q.** With `Cc1ccc(COc2ccc3nn(C)c(C(=O)NC(C)(CO)C(N)=O)c3c2)cn1` (single isomer, unassigned) [Cpd 174 - En1] as the compound, how does the IC50 read?
**A.** 1 to 20 µM

**Q.** How did the IC50 turn out when `Cc1ccc(COc2ccc3nn(C)c(C(=O)NC(C)(CO)C(N)=O)c3c2)cn1` (single isomer, unassigned) [Cpd 174 - En2] was run?
**A.** < 1 µM

**Q.** For `Cn1nc2ccc(OCc3ccccc3C(F)F)cc2c1C(=O)NC1(C(N)=O)CCOC1` (single isomer, unassigned) [Cpd 175 - En1], which IC50 is on record?
**A.** < 1 µM

**Q.** How did the IC50 turn out when `Cn1nc2ccc(OCc3ccccc3C(F)F)cc2c1C(=O)NC1(C(N)=O)CCOC1` (single isomer, unassigned) [Cpd 175 - En2] was run?
**A.** 1 to 20 µM

**Q.** For `Cn1nc2ccc(OCc3ccccc3C(F)F)cc2c1C(=O)NC1(CO)CCNC1=O` (single isomer, unassigned) [Cpd 176 - En1], which IC50 is on record?
**A.** < 1 µM

**Q.** Which IC50 does the source give for `Cn1nc2ccc(OCc3ccccc3C(F)F)cc2c1C(=O)NC1(CO)CCNC1=O` (single isomer, unassigned) [Cpd 176 - En2] here?
**A.** 1 to 20 µM

**Q.** Which IC50 does the source give for `Cn1nc2ccc(OCc3cccnc3C(F)(F)F)cc2c1C(=O)NC1(CO)CCNC1=O` (single isomer, unassigned) [Cpd 177 - En1] here?
**A.** < 1 µM

**Q.** For `Cn1nc2ccc(OCc3cccnc3C(F)(F)F)cc2c1C(=O)NC1(CO)CCNC1=O` (single isomer, unassigned) [Cpd 177 - En2], which IC50 is on record?
**A.** 1 to 20 µM

**Q.** With `Cn1nc2ccc(OCc3cccnc3C(F)(F)F)cc2c1C(=O)NC1(C(N)=O)CCOC1` (single isomer, unassigned) [Cpd 178 - En1] as the compound, how does the IC50 read?
**A.** < 1 µM

**Q.** For `Cn1nc2ccc(OCc3cccnc3C(F)(F)F)cc2c1C(=O)NC1(C(N)=O)CCOC1` (single isomer, unassigned) [Cpd 178 - En2], which IC50 is on record?
**A.** < 1 µM

**Q.** Which IC50 does the source give for `Cc1ncc(COc2ccc3nn(C)c(C(=O)NC(C)(CO)C(N)=O)c3c2)o1` (single isomer, unassigned) [Cpd 179 - En1] here?
**A.** 1 to 20 µM

**Q.** With `Cc1ncc(COc2ccc3nn(C)c(C(=O)NC(C)(CO)C(N)=O)c3c2)o1` (single isomer, unassigned) [Cpd 179 - En2] as the compound, how does the IC50 read?
**A.** < 1 µM

**Q.** `Cn1nc2ccc(OCc3cccnc3)cc2c1C(=O)NC1(CO)CCNC1=O` (single isomer, unassigned) [Cpd 180 - En1] was tested. Which IC50 did it give?
**A.** < 1 µM

**Q.** With `Cn1nc2ccc(OCc3cccnc3)cc2c1C(=O)NC1(CO)CCNC1=O` (single isomer, unassigned) [Cpd 180 - En2] as the compound, how does the IC50 read?
**A.** 1 to 20 µM

**Q.** How did the IC50 turn out when `Cc1ccc(COc2ccc3nn(C)c(C(=O)NC(C)(CO)C(N)=O)c3c2)nc1` (single isomer, unassigned) [Cpd 181 - En1] was run?
**A.** > 20 µM

**Q.** How did the IC50 turn out when `Cc1ccc(COc2ccc3nn(C)c(C(=O)NC(C)(CO)C(N)=O)c3c2)nc1` (single isomer, unassigned) [Cpd 181 - En2] was run?
**A.** 1 to 20 µM

**Q.** Which IC50 does the source give for `Cc1ncsc1COc1ccc2nn(C)c(C(=O)NC(C)(CO)CC(F)F)c2c1` (single isomer, unassigned) [Cpd 182 - En1] here?
**A.** < 1 µM

**Q.** `Cc1ncsc1COc1ccc2nn(C)c(C(=O)NC(C)(CO)CC(F)F)c2c1` (single isomer, unassigned) [Cpd 182 - En2] was tested. Which IC50 did it give?
**A.** < 1 µM

**Q.** Which IC50 does the source give for `CNC(=O)C1(NC(=O)c2c3cc(OCc4cccnc4C(F)(F)F)ccc3nn2C)CCOC1` (single isomer, unassigned) [Cpd 183 - En1, 2-methyl-N-[3-(methylcarbamoyl)oxolan-3-yl]-5-{[2-(trifluoromethyl)pyridin-3-yl]methoxy}-2H-indazole-3-carboxamide] here?
**A.** < 1 µM

**Q.** For `CNC(=O)C1(NC(=O)c2c3cc(OCc4cccnc4C(F)(F)F)ccc3nn2C)CCOC1` (single isomer, unassigned) [Cpd 183 - En2, 2-methyl-N-[3-(methylcarbamoyl)oxolan-3-yl]-5-{[2-(trifluoromethyl)pyridin-3-yl]methoxy}-2H-indazole-3-carboxamide], which IC50 is on record?
**A.** 1 to 20 µM

**Q.** Which IC50 does the source give for `Cc1ncsc1COc1ccc2nn(C)c(C(=O)NC(C)(CO)C(=O)N(C)C)c2c1` (single isomer, unassigned) [Cpd 184 - En1] here?
**A.** 1 to 20 µM

**Q.** `Cc1ncsc1COc1ccc2nn(C)c(C(=O)NC(C)(CO)C(=O)N(C)C)c2c1` (single isomer, unassigned) [Cpd 184 - En2] was tested. Which IC50 did it give?
**A.** 1 to 20 µM

**Q.** For `CNC(=O)C(C)(CO)NC(=O)c1c2cc(OCc3scnc3C)ccc2nn1C` (single isomer, unassigned) [Cpd 185 - En1, 3-hydroxy-N,2-dimethyl-2-({2-methyl-5-[(4-methyl-1,3-thiazol-5-yl)methoxy]-2H-indazol-3-yl}formamido)propanamide], which IC50 is on record?
**A.** 1 to 20 µM

**Q.** With `CNC(=O)C(C)(CO)NC(=O)c1c2cc(OCc3scnc3C)ccc2nn1C` (single isomer, unassigned) [Cpd 185 - En2, 3-hydroxy-N,2-dimethyl-2-({2-methyl-5-[(4-methyl-1,3-thiazol-5-yl)methoxy]-2H-indazol-3-yl}formamido)propanamide] as the compound, how does the IC50 read?
**A.** < 1 µM

**Q.** For `CN(C)C(=O)C1(NC(=O)c2c3cc(OCc4cccnc4C(F)(F)F)ccc3nn2C)CCOC1` (single isomer, unassigned) [Cpd 186 - En1], which IC50 is on record?
**A.** 1 to 20 µM

**Q.** Which IC50 does the source give for `CN(C)C(=O)C1(NC(=O)c2c3cc(OCc4cccnc4C(F)(F)F)ccc3nn2C)CCOC1` (single isomer, unassigned) [Cpd 186 - En2] here?
**A.** 1 to 20 µM

**Q.** Which IC50 does the source give for `Cn1nc2ccc(OCC(F)F)cc2c1C(=O)NC(C)(CO)C(N)=O` (single isomer, unassigned) [Cpd 187 - En1] here?
**A.** > 20 µM

**Q.** How did the IC50 turn out when `Cn1nc2ccc(OCC(F)F)cc2c1C(=O)NC(C)(CO)C(N)=O` (single isomer, unassigned) [Cpd 187 - En2] was run?
**A.** 1 to 20 µM

**Q.** For `CCn1nc2ccc(OCc3ccccn3)cc2c1C(=O)NC(C)(CO)C(N)=O` (single isomer, unassigned) [Cpd 188 - En1, 2-({2-ethyl-5-[(pyridin-2-yl)methoxy]-2H-indazol-3-yl}formamido)-3-hydroxy-2-methylpropanamide], which IC50 is on record?
**A.** 1 to 20 µM

**Q.** With `CCn1nc2ccc(OCc3ccccn3)cc2c1C(=O)NC(C)(CO)C(N)=O` (single isomer, unassigned) [Cpd 188 - En2, 2-({2-ethyl-5-[(pyridin-2-yl)methoxy]-2H-indazol-3-yl}formamido)-3-hydroxy-2-methylpropanamide] as the compound, how does the IC50 read?
**A.** < 1 µM

**Q.** Which IC50 does the source give for `Cn1nc2ccc(OCc3cccnc3)cc2c1C(=O)NC(C)(CO)C(N)=O` (single isomer, unassigned) [Cpd 190 - En1] here?
**A.** 1 to 20 µM

**Q.** With `Cn1nc2ccc(OCc3cccnc3)cc2c1C(=O)NC(C)(CO)C(N)=O` (single isomer, unassigned) [Cpd 190 - En2] as the compound, how does the IC50 read?
**A.** < 1 µM

**Q.** With `Cn1nc2ccc(OCc3ccccc3C(F)F)cc2c1C(=O)NC(C)(CO)C(N)=O` (single isomer, unassigned) [Cpd 191 - En1] as the compound, how does the IC50 read?
**A.** < 1 µM

**Q.** Which IC50 does the source give for `Cn1nc2ccc(OCc3ccccc3C(F)F)cc2c1C(=O)NC(C)(CO)C(N)=O` (single isomer, unassigned) [Cpd 191 - En2] here?
**A.** < 1 µM

**Q.** With `CN(C)C(=O)C(C)(CO)NC(=O)c1c2cc(OCc3cccnc3C(F)(F)F)ccc2nn1C` (single isomer, unassigned) [Cpd 193 - En1, 3-hydroxy-N,N,2-trimethyl-2-[(2-methyl-5-{[2-(trifluoromethyl)pyridin-3-yl]methoxy}-2H-indazol-3-yl)formamido]propanamide] as the compound, how does the IC50 read?
**A.** 1 to 20 µM
